Source: BindingDB's records for doi:10.7270/Q28G8J4C (Broad Institute, 2009)

Biological target: T1, POsterior Segregation (Caenorhabditis elegans, UniProt G5EF15)
T1 sequence (G5EF15 whole entry): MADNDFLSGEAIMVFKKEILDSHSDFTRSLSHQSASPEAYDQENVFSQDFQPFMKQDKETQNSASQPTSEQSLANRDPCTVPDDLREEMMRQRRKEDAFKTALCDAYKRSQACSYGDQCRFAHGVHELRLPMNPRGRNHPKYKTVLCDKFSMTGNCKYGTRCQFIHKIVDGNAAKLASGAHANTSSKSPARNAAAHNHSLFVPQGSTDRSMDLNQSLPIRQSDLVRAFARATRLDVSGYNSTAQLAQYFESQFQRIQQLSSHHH
Assay: disruptors of C. elegans POS-1 RNA interaction – biochemical, fluorescence polarization, dose response (AID 1964)

SMILES	EC50
Cc1ccc(CN=Nc2ncnc3nc[nH]c23)cc1 [MLS000419179]	> 300 µM
CCOc1ccc(N=C(C(=C(Cl)C(Cl)Cl)[N+](=O)[O-])n2cncn2)cc1 [MLS000519210]	46.9 µM
COc1cc(CN=Nc2ccc([N+](=O)[O-])cc2)ccc1OCC(=O)Nc1ccc(C)c(C)c1 [MLS000537060]	> 300 µM
[H]/N=C1/OC23CCCCC2C(C#N)(C#N)C1(C#N)C(c1ccc(OC)cc1)O3 (stereo unspecified) [MLS000554241]	12.4 µM
Nc1c(-c2nc3ccccc3[nH]2)c(O)cn1-c1ccc(CC(=O)O)cc1 [MLS000565528]	5.25 µM
Cc1nnc(=O)[nH]c1N=NCC1C=CC(=O)C([N+](=O)[O-])=C1 (stereo unspecified) [MLS000585487]	169 µM
O=C(N[N-][CH+]c1cc([N+](=O)[O-])ccc1N1CCCC1)c1ccccn1 [MLS000684285]	149 µM
Cc1cc(=O)n(-c2ccc(C(=O)O)c(N)c2)[nH]1 [MLS000690508]	85.5 µM
CC1=C(C#N)C(=O)N(C)C(=O)C1=CNNc1ccc(C)c(C)c1 [MLS000698328]	> 300 µM
CC1=C(C#N)C(=O)N(C)C(=O)C1=CNNc1ccc(F)cc1 [MLS000702698]	> 300 µM
O=C(c1ccccc1)[C@@H]1c2c(c(O)n(-c3ccc(F)cc3)c2O)C2CCCN21 (stereo partly specified) [MLS000769629]	37.9 µM
O=C(O)c1ccccc1N=NCc1c(Sc2nnnn2-c2ccccc2)nc2ccccn2c1=O [MLS000775267]	> 300 µM
CCCCOC(=O)c1ccc(NN=C2C(=O)NC(=O)C(C#N)=C2C)cc1 [MLS000778379]	> 300 µM
COc1cc(C2C3=C(CC(C)(C)CC3=O)OC(=N)C2C#N)ccc1OCCN1CCOCC1 (stereo unspecified) [MLS000779948]	> 300 µM
C=c1c(C(=O)OC)c(O)c(=Cc2ccco2)n1-c1ccccc1 [MLS000780287]	99 µM
COc1ccc(C(C)N=Nc2nc3ccccc3nc2C)cc1OC (stereo unspecified) [MLS001029936]	5.07 µM
CC1(C)c2[nH]c3ccccc3c2Cc2c(O)n(-c3ccc(F)cc3F)c(=O)n21 [MLS001065879]	> 300 µM
O=C(/C=C/c1ccco1)NCC(=O)NNC1=c2ccccc2=NC1=O [MLS001075666]	13.1 µM
O=C1N=C(O)C(C2=c3cc([N+](=O)[O-])ccc3=NC2=O)S1 (stereo unspecified) [MLS001163276]	13.2 µM

SMILES	EC50
N#CC1C(=N)OC2=C(C(=O)CCC2)C1c1cc2c(cc1Cl)OCO2 (stereo unspecified) [MLS001183950]	> 300 µM
Cc1cc(=O)[nH]c(N=NCc2ccc(O)c(O)c2)n1 [MLS001194906]	99.3 µM
COc1ccc(OC)c(N2C(=O)C(=Cc3ccco3)C(=O)NC2=S)c1 [MLS001197216]	10.4 µM
Cc1ccccc1NN=C1C(=O)N(C)c2ccccc21 [MLS001203477]	> 300 µM
O=[N+]([O-])c1cc/c(=N\c2ccccc2O)c2no[nH]c1-2 [MLS001206694]	24.4 µM
COc1cc2c(cc1C1C3=C(CC(C)(C)CC3=O)OC(=N)C1C#N)OCO2 (stereo unspecified) [MLS001208406]	> 300 µM
O=C1C([N+](=O)[O-])=CC(Cl)=CC1/C=N/NC(=O)C(O)(c1ccccc1)c1ccccc1 (stereo unspecified) [N''''-[(E)-(3-chloro-5-nitro-6-oxocyclohexa-2,4-dien-1-ylidene)methyl]-2-hydroxy-2,2-diphenylacetohydrazide]	> 300 µM
O=C(NN=Cc1c(O)n(-c2ccccc2)c(=S)[nH]c1=O)c1ccc(O)cc1 [N'-[(1Z)-(4,6-dioxo-1-phenyl-2-thioxohexahydropyrimidin-5-yl)methylene]-4-hydroxybenzohydrazide]	> 300 µM
O=C(N/N=C/C1C=C(Cl)C=C([N+](=O)[O-])C1=O)c1ccc2c(c1)OCO2 (stereo unspecified) [N'-[(E)-(3-chloranyl-5-nitro-6-oxidanylidene-cyclohexa-2,4-dien-1-ylidene)methyl]-1,3-benzodioxole-5-carbohydrazide]	127 µM
O=C1NC(=O)N(CCc2ccc(F)cc2)C(=O)C1=CNNC(=O)c1ccccc1 [N'-[(E)-[1-[2-(4-fluorophenyl)ethyl]-2,4,6-trioxo-1,3-diazinan-5-ylidene]methyl]benzohydrazide]	> 300 µM
O=C1NC(=O)N(CCc2ccccc2)C(=O)C1=CNNC(=O)c1ccncc1 [N'-[(E)-[2,4,6-trioxo-1-(2-phenylethyl)-1,3-diazinan-5-ylidene]methyl]-4-pyridinecarbohydrazide]	> 300 µM
C/N=c1\ccc2nc3ccccc3n(C)c-2c1 [N,10-dimethyl-2-phenazin-10-iumamine;perchlorate]	20.5 µM
O=[N+]([O-])c1ccc(/N=N/c2ncc[nH]2)cc1 [N-(imidazol-2-ylideneamino)-4-nitroaniline]	69.1 µM
COc1ccc(N=C(C(=C(Cl)C(Cl)Cl)[N+](=O)[O-])n2nnc3ccccc32)cc1 [N-[(1E)-1-(1-benzotriazolyl)-3,4,4-trichloro-2-nitrobuta-1,3-dienyl]-4-methoxyaniline]	88.5 µM
COc1cccc(C2C3=C(CC(c4ccco4)CC3=O)OC(=N)C2C#N)c1OCc1ccc(F)cc1 (stereo unspecified) [SMR000021029]	> 300 µM
CCN(CC)c1ccc(C=NC(C#N)C(=N)C#N)cc1 (stereo unspecified) [SMR000023871]	281 µM
COc1ccc(C2CC(c3ccc(Br)s3)=Nc3ncnn32)cc1OC (stereo unspecified) [SMR000032927]	7.82 µM
Cc1ccc(C2C3CN(C(C)C)CCC3=C(C#N)C(=N)C2(C#N)C#N)cc1 (stereo unspecified) [SMR000034220]	7.15 µM
Cc1cc(O)c(C(C)C)cc1Nc1csc(=O)[nH]1 [SMR000034713]	38.9 µM

SMILES	EC50
CC1=NC(c2ccccc2)C(C#N)(C#N)C(C#N)(C#N)C1 (stereo unspecified) [SMR000037705]	3.14 µM
COc1cc(OC)c(C2C3=C(CC(C)(C)CC3=O)OC(=N)C2C#N)cc1OC (stereo unspecified) [SMR000054706]	> 300 µM
C=c1[nH]n(-c2cccc(C(=O)O)c2)c(=O)c1=CC=Cc1ccco1 [SMR000113614]	19.9 µM
COc1ccc(C=C2CCCC(C(=O)C(F)(F)F)C2=O)cc1 (stereo unspecified) [SMR000142699]	36 µM
Oc1ccc2ccccc2c1CN=Nc1nnc(-c2ncc[nH]2)c2ccccc12 [SMR000151639]	48.7 µM
CN1CCC2(CC1)C(C#N)C(=N)NC(=S)C2C#N (stereo unspecified) [SMR000211480]	8.05 µM
O=C(c1ccccc1)c1[nH]n(-c2ccccc2)c2c(O)n(-c3ccccc3Cl)c(=O)c1-2 [SMR000212371]	> 300 µM
COc1ccc(N=CCC(=O)c2ccc(C)cc2)cc1OC [SMR000269732]	> 300 µM
CCCCN1C(=O)/C(=C2/Sc3ccccc3N2C)SC1=Nc1nnc[nH]1 [SMR000282142]	58.7 µM
Oc1ccc(CN=Nc2ncnc3nc[nH]c23)cc1 [SMR000320358]	> 300 µM
COC(=O)c1ccc(-n2c(C)cc(CN=Nc3nc(C)cc(=O)[nH]3)c2C)cc1 [SMR000364461]	> 300 µM
O=C(N/N=C/C1C=C(Cl)C=C([N+](=O)[O-])C1=O)c1ccccc1NS(=O)(=O)c1cccs1 (stereo unspecified) [SMR000364876]	282 µM
Cc1cc(C(=O)NN=CC2C=C(Cl)C=C([N+](=O)[O-])C2=O)[nH]n1 (stereo unspecified) [SMR000414694]	> 300 µM
Cn1c(=O)[nH]c(=O)c2c1nc(N=NC=C(Br)Cc1ccccc1)n2CCO [SMR000436442]	206 µM
COc1ccccc1N1C(=O)NC(=O)C(=Cc2c[nH]c3ccccc23)C1=O [SMR000495900]	> 300 µM
Cc1cc(-c2ccccc2)nc(N=NCc2ccc(O)cc2O)n1 [SMR000513422]	> 300 µM
Cc1[nH]n(C(N)=S)c(=O)c1N=Nc1c(Cl)cc([N+](=O)[O-])cc1Cl [SMR000514008]	> 300 µM
CC1(C)CC(=O)C2=C(C1)OC(=N)C(C#N)C2c1ccc2c(c1)OCO2 (stereo unspecified) [SMR000514966]	> 300 µM
